Columns and labels:
Details in all cases: Cricetulus griseus
[1] = biological target: Multifunctional protein CAD (Homo sapiens) (UniProt P27708); assay: Inhibitory activity against Dihydroorotase (DHO); no reproducible apparent Ki data
[2] = biological target: Multifunctional protein CAD (Homo sapiens) (UniProt P27708); assay: Inhibitory activity against Dihydroorotase (DHO) using CAD protein at concentrations >=6 mM; no inhibition was observed
[3] = system: NC(=O)NC(CCS)C(=O)O; assay: Kinetic constant for the inactivation against Dihydroorotase (DHO) at a concentration of 3 uM
[4] = system: NC(=O)NC(CC(=O)O)C(=O)O; assay: Kinetic constant for the inactivation of Dihydroorotase (DHO) at pH 6.0

Multifunctional protein CAD (Homo sapiens), sequence (P27708 whole entry): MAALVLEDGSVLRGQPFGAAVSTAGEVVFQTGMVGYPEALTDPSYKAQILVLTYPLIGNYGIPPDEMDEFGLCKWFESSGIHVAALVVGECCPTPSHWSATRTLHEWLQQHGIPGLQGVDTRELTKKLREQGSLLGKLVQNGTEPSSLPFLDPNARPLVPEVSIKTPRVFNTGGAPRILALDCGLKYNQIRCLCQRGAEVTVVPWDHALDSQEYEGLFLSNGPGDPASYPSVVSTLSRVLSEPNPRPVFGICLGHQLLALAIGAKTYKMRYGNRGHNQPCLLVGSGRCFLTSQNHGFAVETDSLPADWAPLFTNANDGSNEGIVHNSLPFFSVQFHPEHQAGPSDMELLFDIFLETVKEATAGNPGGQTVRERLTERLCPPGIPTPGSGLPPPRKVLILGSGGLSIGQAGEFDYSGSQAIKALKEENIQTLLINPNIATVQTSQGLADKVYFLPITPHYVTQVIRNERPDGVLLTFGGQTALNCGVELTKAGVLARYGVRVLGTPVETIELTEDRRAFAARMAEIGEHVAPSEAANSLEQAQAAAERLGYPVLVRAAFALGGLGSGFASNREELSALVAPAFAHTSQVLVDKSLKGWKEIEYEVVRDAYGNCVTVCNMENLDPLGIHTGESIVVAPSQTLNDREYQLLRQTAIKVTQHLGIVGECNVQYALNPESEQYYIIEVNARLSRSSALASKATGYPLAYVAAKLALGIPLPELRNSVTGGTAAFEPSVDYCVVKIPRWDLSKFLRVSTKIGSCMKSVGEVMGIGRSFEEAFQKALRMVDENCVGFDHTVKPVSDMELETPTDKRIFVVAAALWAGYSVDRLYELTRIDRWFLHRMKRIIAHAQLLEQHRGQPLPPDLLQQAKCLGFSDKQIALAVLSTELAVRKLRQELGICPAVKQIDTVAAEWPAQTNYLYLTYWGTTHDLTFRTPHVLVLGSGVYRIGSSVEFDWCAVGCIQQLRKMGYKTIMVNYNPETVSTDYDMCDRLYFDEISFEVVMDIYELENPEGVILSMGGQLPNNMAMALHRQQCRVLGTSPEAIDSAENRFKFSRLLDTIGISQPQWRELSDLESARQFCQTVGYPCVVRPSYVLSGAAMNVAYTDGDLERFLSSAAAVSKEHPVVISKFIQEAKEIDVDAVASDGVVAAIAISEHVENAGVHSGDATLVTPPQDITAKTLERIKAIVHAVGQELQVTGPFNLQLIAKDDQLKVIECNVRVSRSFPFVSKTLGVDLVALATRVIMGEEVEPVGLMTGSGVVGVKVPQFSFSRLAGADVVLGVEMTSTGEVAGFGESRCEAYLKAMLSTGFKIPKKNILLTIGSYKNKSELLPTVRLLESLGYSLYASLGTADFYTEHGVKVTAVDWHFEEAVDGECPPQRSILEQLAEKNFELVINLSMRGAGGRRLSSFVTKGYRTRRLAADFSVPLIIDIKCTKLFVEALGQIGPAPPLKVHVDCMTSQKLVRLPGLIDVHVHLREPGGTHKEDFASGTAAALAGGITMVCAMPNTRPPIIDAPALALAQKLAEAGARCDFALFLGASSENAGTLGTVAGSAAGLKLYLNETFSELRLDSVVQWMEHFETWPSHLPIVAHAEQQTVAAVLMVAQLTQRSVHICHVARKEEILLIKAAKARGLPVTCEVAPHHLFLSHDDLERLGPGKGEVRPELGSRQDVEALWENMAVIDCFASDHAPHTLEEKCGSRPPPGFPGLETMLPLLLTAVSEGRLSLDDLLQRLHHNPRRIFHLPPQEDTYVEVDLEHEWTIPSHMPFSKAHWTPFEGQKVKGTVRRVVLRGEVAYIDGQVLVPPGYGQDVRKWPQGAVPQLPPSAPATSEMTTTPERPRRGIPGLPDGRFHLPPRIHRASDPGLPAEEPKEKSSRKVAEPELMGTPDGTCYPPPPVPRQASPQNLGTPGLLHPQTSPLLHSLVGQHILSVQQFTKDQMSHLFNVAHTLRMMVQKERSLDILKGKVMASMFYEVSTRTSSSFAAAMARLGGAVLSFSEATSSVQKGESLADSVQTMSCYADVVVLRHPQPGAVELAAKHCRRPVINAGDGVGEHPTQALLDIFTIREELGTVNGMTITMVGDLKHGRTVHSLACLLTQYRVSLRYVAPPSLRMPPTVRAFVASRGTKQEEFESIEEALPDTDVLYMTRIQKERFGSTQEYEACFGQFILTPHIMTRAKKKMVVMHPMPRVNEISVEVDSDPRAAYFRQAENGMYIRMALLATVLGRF

**Q.** With COC(=O)C(CB(O)O)NC(N)=O (centres undefined) as the molecule, how does the inhibition [1] read?
**A.** no reproducible apparent Ki data

**Q.** Which inhibition [2] does the source give for NC(=O)NC(CB(O)O)C(=O)O (centres undefined) here?
**A.** No inhibition

**Q.** “Multifunctional protein CAD (Homo sapiens), P27708” was tested. Which kinact [3] did it give?
**A.** 460000 min⁻¹

**Q.** What about the Km [4] of the same molecule?
**A.** 50 µM

Source: ChEMBL document CHEMBL1124703, “Analogues of carbamyl aspartate as inhibitors of dihydroorotase: preparation of boronic acid transition-state analogues and a zinc chelator carbamylhomocysteine” (J Med Chem, 1990)
